In US5622947A, “Benzoheterocyclic compounds and vasopressin antagonist and oxytocin antagonist compositions containing a benzoheterocyclic compound” (Otsuka Pharmaceutical Co., Ltd., priority 1992, dated 1997):

Legend:
[1] = target: T1, V1 Recepter (rat liver plasma membrane preparations) (Rattus norvegicus, UniProt P30560); test: V1 Recepter binding assay; conditions: [3H]-Arg-vasopressin 2×10^-10 M, 37° C., 10 minutes, pH 8.0, rat liver plasma membrane
T1 construct: rat liver plasma membrane preparations; from tissue; host or cells: rat liver plasma membranes
T1 sequence (P30560 whole entry): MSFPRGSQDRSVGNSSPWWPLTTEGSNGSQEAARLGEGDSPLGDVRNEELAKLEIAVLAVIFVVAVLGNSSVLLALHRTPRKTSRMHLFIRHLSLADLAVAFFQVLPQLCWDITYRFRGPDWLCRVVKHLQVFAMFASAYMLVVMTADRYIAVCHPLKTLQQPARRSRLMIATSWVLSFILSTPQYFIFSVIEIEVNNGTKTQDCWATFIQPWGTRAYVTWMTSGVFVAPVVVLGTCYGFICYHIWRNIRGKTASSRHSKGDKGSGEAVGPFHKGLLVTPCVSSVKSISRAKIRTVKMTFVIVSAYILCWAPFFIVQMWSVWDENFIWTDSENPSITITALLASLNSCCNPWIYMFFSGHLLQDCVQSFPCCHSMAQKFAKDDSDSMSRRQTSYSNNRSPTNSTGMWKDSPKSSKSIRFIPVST
Method: Test-1: V1 Recepter binding assay
By using rat liver plasma membrane preparations prepared according to Ichiraha's method [by Akira Ichihara: J. Bio. Chem., 258, 9283 (1983)], the plasma membrane (50,000 dpm, 2×10^-10 M) of [^3 H]-Arg-vasopressin and a test compound (60 μg, 10^-8 to 10^-4 M) were incubated at 37° C. for 10 minutes in 250 μl (in total volume) of 100 mM Tris-HCl buffer (pH=8.0), containing 5 mM MgCl2, 1 mM EDTA and 0.1% BSA. After the incubation, the mixture was filtered three times by using a glass filter (GF/F) so as to separate the membrane preparation by combining with vasopressin and then washed with the buffer (5 ml). This glass filter was taken out and mixed with a liquid of scintillation cocktail. The amount of [^3 H]-vasopressin combining with the membrane was measured by liquid scintillation counter and the rate of inhibitory effect of the test compound was calculated according to the following equation: […]
C1 : the amount of [^3 H]-vasopressin combining with the membrane in the presence of the test compound of a known amount,
C0 : the amount of [^3 H]-vasopressin combining with the membrane in the absence of the test compound,
B1 : the amount of [^3 H]-vasopressin combining with the membrane in the presence of the excess amount of vasopressin (10^-6 M).
The results are expressed as IC50 value, which is the concentration of the test compound required to achieve the inhitory effect in the rate of 50% and are shown in the following Table 156.

[2] = target: T2, V2 Recepter (rat kidney plasma membrane preparations) (Rattus norvegicus, UniProt Q00788); test: V2 Recepter binding assay; conditions: [3H]-Arg-vasopressin 4×10^-10 M, 4° C., pH 8.0, rat kidney plasma membrane
T2 construct: rat kidney plasma membrane preparations; from tissue; host or cells: rat kidney plasma membranes
T2 sequence (Q00788 whole entry): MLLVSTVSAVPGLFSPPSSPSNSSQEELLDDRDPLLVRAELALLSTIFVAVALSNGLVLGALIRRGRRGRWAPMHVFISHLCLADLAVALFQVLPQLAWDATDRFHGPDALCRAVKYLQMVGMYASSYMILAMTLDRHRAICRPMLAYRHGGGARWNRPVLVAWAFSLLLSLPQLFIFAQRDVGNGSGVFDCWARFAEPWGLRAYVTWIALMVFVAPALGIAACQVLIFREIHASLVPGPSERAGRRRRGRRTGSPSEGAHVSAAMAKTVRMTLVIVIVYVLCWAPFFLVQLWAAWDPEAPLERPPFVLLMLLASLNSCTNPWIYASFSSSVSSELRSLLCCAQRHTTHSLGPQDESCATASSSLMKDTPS
Outline: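 Rat kidney plasma membranes incubated with [^3H]-Arg-vasopressin (4×10^-10 M) and test compound (10^-10 to 10^-5 M) for 3 h at 4 °C in 100 mM Tris-HCl pH 8.0 with 5 mM MgCl2, 1 mM EDTA, 0.1% BSA. Bound label by filtration and scintillation counting; nonspecific binding with 10^-6 M vasopressin; IC50 reported.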

[3] = target: T3, Oxytocin receptor (uterin muscle membrane preparation) (Rattus norvegicus, UniProt P70536); test: Oxytocin receptor binding assay; conditions: [3H]-oxytocin 10^-9 M, 25°, one hour, pH 8.0, uterin muscle membrane, DES-treated
T3 construct: was homogenized, which was used as a membrane; from tissue; host or cells: uterine muscle membranes from diethylstilbestrol-treated animals
T3 sequence (P70536 1-388): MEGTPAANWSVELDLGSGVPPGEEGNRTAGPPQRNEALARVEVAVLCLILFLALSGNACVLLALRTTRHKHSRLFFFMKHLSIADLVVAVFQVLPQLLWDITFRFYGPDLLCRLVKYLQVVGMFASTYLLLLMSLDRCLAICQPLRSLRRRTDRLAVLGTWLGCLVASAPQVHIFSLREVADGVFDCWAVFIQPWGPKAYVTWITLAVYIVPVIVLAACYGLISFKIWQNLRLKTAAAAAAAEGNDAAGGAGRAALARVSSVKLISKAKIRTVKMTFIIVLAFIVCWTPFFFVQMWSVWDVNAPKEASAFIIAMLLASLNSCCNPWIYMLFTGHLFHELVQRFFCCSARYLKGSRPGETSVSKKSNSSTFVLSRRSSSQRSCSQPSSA
Outline: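 Rat uterine membranes (0.2 mg; DES-primed day before) incubated 1 h at 25° with [3H]-oxytocin (10^-9 M) and compound (10^-9 to 10^-5 M) in 100 mM Tris-HCl pH 8.0, 5 mM MgCl2, 1 mM EDTA, 0.1% BSA. Filter-bound radioactivity counted; nonspecific with 5×10^-6 M oxytocin; IC50 reported.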

## COc1cc(NC(=O)c2ccccc2Cl)ccc1C(=O)N1CCCC(OCCSc2ccncc2)c2cc(Cl)ccc21 (stereo not drawn) [Example 139, 5-[2-(4-Pyridyl)thioethoxy]-7-chloro-1-[2-methoxy-4-(2-chlorobenzoylamino)benzoyl]-2,3,4,5-tetrahydro-1H-benzoazepine]
[1]
  IC50: 0.12 µM
[2]
  IC50: 0.012 µM
[3]
  IC50: 1 µM

## COc1cc(NC(=O)c2ccccc2Cl)ccc1C(=O)N1CCCC(OCCSc2nccc(C)n2)c2cc(Cl)ccc21 (stereo not drawn) [Example 140]
[1]
  IC50: 0.28 µM
[2]
  IC50: 0.046 µM
[3]
  IC50: 4.29 µM

## COc1cc(NC(=O)c2ccccc2Cl)ccc1C(=O)N1CCCC(OCCSc2ncc[nH]2)c2cc(Cl)ccc21 (stereo not drawn) [Example 141, 5-[2-(2-Imidazolyl)thioethoxy]-7-chloro-1-[2-methoxy-4-(2-chlorobenzoylamino)benzoyl]-2,3,4,5-tetrahydro-1H-benzoazepine]
[1]
  IC50: 0.056 µM
[2]
  IC50: 0.0076 µM
[3]
  IC50: 0.193 µM

## COc1cc(NC(=O)c2ccccc2Cl)ccc1C(=O)N1CCCC(OCCS(=O)(=O)c2ccncc2)c2cc(Cl)ccc21 (stereo not drawn) [Example 142, 5-[2-(4-Pyridyl)sulfonylethoxy]-7-chloro-1-[2-methoxy-4-(2-chlorobenzoylamino)benzoyl]-2,3,4,5-tetrahydro-1H-benzoazepine]
[1]
  IC50: 0.098 µM
[2]
  IC50: 0.038 µM
[3]
  IC50: 1.13 µM

## COc1cc(NC(=O)c2ccccc2Cl)ccc1C(=O)N1CCCC(OCC[S+]([O-])c2ccncc2)c2cc(Cl)ccc21 (stereo not drawn) [Example 143, 5-[2-(4-Pyridyl)sulfinylethoxy]-7-chloro-1-[2-methoxy-4-(2-chlorobenzoylamino)benzoyl]-2,3,4,5-tetrahydro-1H-benzoazepine]
[1]
  IC50: 0.013 µM
[2]
  IC50: 0.022 µM
[3]
  IC50: 0.2 µM

## COc1cc(NC(=O)c2ccccc2Cl)ccc1C(=O)N1CCCC(OCC[S+]([O-])c2ncc[nH]2)c2cc(Cl)ccc21 (stereo not drawn) [Example 144, 5-[2-(2-Imidazolyl)sulfinylethoxy]-7-chloro-1-[2-methoxy-4-(2-chlorobenzoylamino)benzoyl] 2,3,4,5-tetrahydro-1H-benzoazepine]
[1]
  IC50: 0.055 µM
[2]
  IC50: 0.0099 µM
[3]
  IC50: 0.354 µM

## COc1cc(NC(=O)c2ccccc2Cl)ccc1C(=O)N1CCCC(OCCS(=O)(=O)c2ncc[nH]2)c2cc(Cl)ccc21 (stereo not drawn) [Example 145, 5-[2-(2-Imidazolyl)sulfonylethoxy]-7-chloro-1-[2-methoxy-4-(2-chlorobenzoylamino)benzoyl]-2,3,4,5-tetrahydro-1H-benzoazepine]
[1]
  IC50: 0.091 µM
[2]
  IC50: 0.014 µM
[3]
  IC50: 0.849 µM

## COc1cc(NC(=O)c2ccccc2Cl)ccc1C(=O)N1CCCC(CCN2CCN(S(C)(=O)=O)CC2)c2cc(Cl)ccc21 (stereo not drawn) [Example 146, 5-[2-(4-Methanesulfonyl-1-piperazinyl)ethyl]-7-chloro-1-[2-methoxy-4-(2-chlorobenzoylamino)-benzoyl]-2,3,4,5-tetrahydro-1H-benzoazepine]
[1]
  IC50: 0.054 µM
[2]
  IC50: 0.01 µM
[3]
  IC50: 0.154 µM

## CCOC(=O)N1CCN(CCC2CCCN(C(=O)c3ccc(NC(=O)c4ccccc4Cl)cc3OC)c3ccc(Cl)cc32)CC1 (stereo not drawn) [Example 147, 5-[2-(4-Ethoxycarbonyl-1-piperazinyl)ethyl]-7-chloro-1-[2-methoxy-4-(2-chlorobenzoylamino)-benzoyl]-2,3,4,5-tetrahydro-1H-benzoazepine]
[1]
  IC50: 0.039 µM
[2]
  IC50: 0.014 µM
[3]
  IC50: 0.504 µM

## CNC(=O)N1CCN(CCC2CCCN(C(=O)c3ccc(NC(=O)c4ccccc4Cl)cc3OC)c3ccc(Cl)cc32)CC1 (stereo not drawn) [Example 148, 5-[2-(4-Methylaminocarbonyl-1-piperazinyl)ethyl]-7-chloro-1-[2-methoxy-4-(2-chlorobenzoylamino)benzoyl]-2,3,4,5-tetrahydro-1H-benzoazepine]
[1]
  IC50: 0.054 µM
[2]
  IC50: 0.005 µM
[3]
  IC50: 0.225 µM

## COc1cc(NC(=O)c2ccccc2Cl)ccc1C(=O)N1CCCC(OCCNCc2ccccc2)c2cc(Cl)ccc21 (stereo not drawn) [Example 150, 5-(2-Benzylaminoethoxy)-7-chloro-1-[2-methoxy-4-(2-chlorobenzoylamino)benzoyl]-2,3,4,5-tetrahydro-1H-benzoazepine]
[1]
  IC50: 0.016 µM
[2]
  IC50: 0.009 µM
[3]
  IC50: 0.471 µM

## COc1cc(NC(=O)c2ccccc2Br)ccc1C(=O)N1CCCC(OCCNS(=O)(=O)C(F)(F)F)c2cc(Cl)ccc21 (stereo not drawn) [Example 152, 5-(2-Trifluoromethylsulfonylaminoethoxy)-7-chloro-1-[2-methoxy-4-(2-bromobenzoylamino)benzoyl]-2,3,4,5-tetrahydro-1H-benzoazepine]
[1]
  IC50: 0.041 µM
[2]
  IC50: 0.061 µM
[3]
  IC50: 1.64 µM

## CCN(CC)CCCNCCOC1CCCN(C(=O)c2ccc(NC(=O)c3ccccc3Cl)cc2OC)c2ccc(Cl)cc21 (stereo not drawn) [Example 153, 5-[2-(3-Diethylaminopropyl)aminoethoxy]-7-chloro-1-[2-methoxy-4-(2-chlorobenzoylamino)benzoyl]-2,3,4,5-tetrahydro-1H-benzoazepine]
[1]
  IC50: 0.036 µM
[2]
  IC50: 0.005 µM
[3]
  IC50: 0.248 µM

## COc1cc(NC(=O)c2ccccc2Cl)ccc1C(=O)N1CCCC(CC(=O)NCCc2cccn2C)c2cc(Cl)ccc21 (stereo not drawn) [Example 154, 5-[2-(1-Methyl-2-pyrrolyl)ethyl]aminocarbonyl-methyl-7-chloro-1-[2-methoxy-4-(2-chlorobenzoylamino)benzoyl]-2,3,4,5-tetrahydro-1H-benzoazepine]
[1]
  IC50: 0.021 µM
[2]
  IC50: 0.012 µM
[3]
  IC50: 0.197 µM

## COc1cc(NC(=O)c2ccccc2Cl)ccc1C(=O)N1CCCC(CC(=O)NCCC2CCCN2C)c2cc(Cl)ccc21 (stereo not drawn) [Example 155, 5-[2-(1-Methyl-2-pyrrolidinyl)ethyl]-aminocarbonylmethyl-7-chloro-1-[2-methoxy-4-(2-chlorobenzoylamino)benzoyl]-2,3,4,5-tetrahydro-1H-benzoazepine]
[1]
  IC50: 0.007 µM
[2]
  IC50: 0.0019 µM
[3]
  IC50: 0.055 µM

## COc1cc(NC(=O)c2ccccc2Cl)ccc1C(=O)N1CCCC(CC(=O)NCCN2CCCCC2)c2cc(Cl)ccc21 (stereo not drawn) [Example 156, 5-[2-(1-Piperidinyl)ethyl]aminocarbonylmethyl-7-chloro-1-[2-methoxy-4-(2-chlorobenzoylamino)benzoyl]-2,3,4,5-tetrahydro-1H-benzoazepine]
[1]
  IC50: 0.0055 µM
[2]
  IC50: 0.003 µM
[3]
  IC50: 0.07 µM

## COc1cc(NC(=O)c2ccccc2Cl)ccc1C(=O)N1CCCC(CC(=O)N2CCN(CC(=O)N3CCCC3)CC2)c2cc(Cl)ccc21 (stereo not drawn) [Example 157, 5-{4-[(1-Pyrrolidynyl)carbonylmethyl]-1-piperazinyl}carbonylmethyl-7-chloro-1-[2-methoxy-4-(2-chlorobenzoylamino)benzoyl]-2,3,4,5-tetrahydro-1H-benzoazepine]
[1]
  IC50: 0.016 µM
[2]
  IC50: 0.0073 µM
[3]
  IC50: 0.047 µM

## COc1cc(NC(=O)c2ccccc2Cl)ccc1C(=O)N1CCCC(CC(=O)Nc2ccccc2Cl)c2cc(Cl)ccc21 (stereo not drawn) [Example 158, 5-(2-Chloroanilino)carbonylmethyl-7-chloro-1-[2-methoxy-4-(2-chlorobenzoylamino)benzoyl]-2,3,4,5-tetrahydro-1H-benzoazepine]
[1]
  IC50: 0.031 µM
[2]
  IC50: 0.014 µM
[3]
  IC50: 0.13 µM

## COc1cc(NC(=O)c2ccccc2Cl)ccc1C(=O)N1CCCC(NC(=O)c2ccccc2Cl)c2cc(Cl)ccc21 (stereo not drawn) [Example 159, 5-(2-Chlorobenzoylamino)-7-chloro-1-[2-methoxy-4-(2-chlorobenzoylamino)benzoyl]-2,3,4,5-tetrahydro-1H-benzoazepine]
[1]
  IC50: 0.28 µM
[2]
  IC50: 0.025 µM
[3]
  IC50: 1.7 µM
